The text below walks through data of US6303621A, “Method for treating cancers using a diiodo thyronine analogue having no significant hormonal activity and a vinca alkaloid and compositions comprising the same” (priority 1999, dated 2001).

SMILES strings stand for the structures. Entries after “also recorded” stand apart in the source; their conditions may differ.

Series [1] has as its system metaphase arrest in cancer cells. The experiment in a line: Metaphase block (mitotic block). It counts as cell-based. The following applies: FIG. 7. From the text: Metaphase was quantitated as reported by Mendeleyev et al., International Journal of Oncology 10:689-695 (1997).
Since vincristine and vinblastine were equivalent here we illustrate only DIME-vinblastine interaction on mitotic block.

A further series concerns malignant tumor growth. The experiment in a line: Activity of DIME in vivo (general statement).
Series [2] concerns human cancer cells. Briefly: Cytostatic / cytocidal activity of DIME analogues on human cancer cells. Type of series: cell-based. From the text:
Such tests may also screen for the ability of a particular compound to inhibit malignant tumor cell growth in vitro or in vivo or abolish tumorigenicity of malignant cells.
As will be appreciated by the skilled artisan, many varieties of malignant tumor cell cultures and cell lines may be used to screen for activity, including but not limited to HL-60, HT-144, E-ras-20, DU-145, MDA-168, MCF-7, 855-2 and MDA-MB-231. Of course, other in vitro and/or in vivo assays as will be apparent to the skilled artisan to screen for anti-tumor and/or anti-cancer activity may also be employed to identify effective diiodo thyronine analogues useful in the present invention.

The next series has as its system thyroid. The following applies: rat, in vivo; cited from earlier work.
For a further series, the system named is tadpole metamorphosis. The following applies: in vivo; cited from earlier work.
The subject of series [3] is non-malignant mouse pituitary adenoma. The following applies: in vivo; cited from earlier work.
Series [4] concerns human cancer cells. The following applies: studies set forth in U.S. Ser. Nos. 08/655,267 and 08/833,272; cited from earlier work.
The subject of a further series is leukemias. The following applies: in vivo; cited from earlier work.
In series [5] the test system is caspase 3. The experiment in a line: Caspase 3 assay in drug-treated cells. Type of series: cell-based, human. Particulars: 0.75 μM DIME or 2 nM vincristine alone, 3 days. As to the method: g. Caspase 3 assay. MDA 231 cells were grown for 3 days in the absence of drugs (control) or in the presence of 0.75 μM DIME, or in the presence of 2 nM vincristine, or in the presence of both drugs. After harvesting and washing the cells with PBS, they were lysed in a lysis buffer (10 mM HEPES, 5 mM DTT, 2 mM EDTA, 1 mM PMSF, 0.1% CHAPS, 20 μg/ml each of aprotinin, leupeptin, pepstatin, pH 7.4), and were frozen and thawed 3 times. […] Each cell extract was incubated at room temperature with and without preincubation with the caspase inactivator DEVD-CMK. The difference of fluorescence was plotted against time. The fluorescence was calibrated with the fluorophore AFC.

The subject of series [6] is caspase 3. Briefly: Caspase 3 in cell-free extracts treated with drugs. Type of series: biochemical. Particulars: results not shown.
Series [7] concerns MDA-MB-231 human mammary cancer cells. The experiment in a line: Cell growth kinetics, median effect and isobologram. The following applies: 0.75 μM DIME (or DIPE) or 1-2 nM vincristine alone. Type of series: cell-based. As to the method:
(§1) c. MDA-MB-231 human mammary cancer cells were cultured and treated as reported previously by Mendeleyev et al., International Journal of Oncology 10:689-695 (1997) and Zhen et al., International Journal of Oncology 10:689-695 (1997). For the assay of cell growth kinetics cells, were seeded into 2cm^2 wells (24-well plates) at a density of 8×10^3 /cm^2 at the time of seeding. Vincristine (or vinblastine) and DIME (or DIPE) were added from DMSO dilutions (1-2 μl/ 500 μl culture mediim) either from separate drug solutions or for the construction of median effect plot (FIG. 1) from a pre-made mixture of both drugs (e.g. 0.75 μM DIME+2 nM vincristine) and simultaneous dilutions thereof (Chou et al. Eur. J. Biochem. 115: 207-216 (1981)). The cultures were incubated at 37° C. for 4 days and growth rates, leading to near confluency in drug-free controls, were monitored by cell counting in a haemocytometer after detachment by trypsin treatment Mendeleyev et al., International Journal of Oncology 10:689-695 (1997) and Zhen et al., International Journal of Oncology 10:689-695 (1997). Mathematical analysis of growth curves and median effects and isobolograms were carried out by published procedures (Chou et al. J. Theor. Biol. 65: 345-356 (1977), Chou et al. Eur. J. Biochem. 115: 207-216 (1981) and Chou et al. Adv. in Enzyme Regulation 22:27-55 (1984)) and error bars indicate SD=Σx^2 +L -(Σx)^2 /n where X is the numerical results with n=3-5.
Kinetics of vincristine-DIME interactions: Interpretation of conventional isobolograms, consisting of plots of I50 values of two drugs alone and in combination is valid only if it is proven kinetically that both drugs bind at mutually exclusive sites.
Isobologram analysis of the combined action of DIME and vincristine is illustrated in FIG. 2, and it is evident that the action of the two drugs in combination exceed an additive effect, which is depicted by a concave curve, contrasting with additive action, which would display a straight line connecting the I50 values for each drug alone (dotted line in FIG. 2). […]

Series [8] has as its system esterase activity in certain tumor cells. The experiment in a line: Stability to hydrolysis (esterase). The following applies: versus DIME.
For series [9], the system named is MDA-MB-231 human mammary cancer cells. Briefly: Colony formation (cell killing). It counts as cell-based. The following applies: FIG. 4a. As to the method:
as §1
e. Colony formation was quantitated as reported by. Each colony of 50 cells is the outgrowth from one cell, plated 10 days before colony counting.

The next series deals with microtubules. The experiment in a line: Microtubule binding.
The subject of the next series is tubulin α+β. Briefly: Inhibition of tubulin polymerization / assembly of microtubules. Type of series: biochemical. Particulars: FIG. 4b. The procedure: The optical tests were performed as reported by Buki et al., International Journal of Oncology 10:911-913 (1997).
Series [10] has as its system Ras and apoptosis-regulating kineses (ASK1), pathways. The following applies: Wang et al.; cited from earlier work.
The conditions of series [11]: vindesine versus vincristine; cited from earlier work.

For `CC[C@]1(O)C[C@@H]2CN(CCc3c([nH]c4ccccc34)[C@@](C(=O)OC)(c3cc4c(cc3OC)N(C)[C@H]3[C@@](O)(C(=O)OC)[C@H](OC(C)=O)[C@]5(CC)C=CCN6CC[C@]43[C@@H]65)C2)C1` [vinblastine], the “Combined action with DIME on metaphase arrest, vincristine versus vinblastine” value in series [1] is listed as “equivalent”.
For the molecule `CCCOc1ccc(Oc2c(I)cc(C(=O)OC)cc2I)cc1` [Compound 3], the Activity in vivo result with malignant tumor growth was “completely inactive”. Also, the “Cytostatic and cytocidal activity in cellular assays” value with human cancer cells [2] is “completely inactive”.
On to `CCOC(=O)c1cc(I)c(Oc2ccc(OC)cc2)c(I)c1` [Compound 5, Ethyl 3,5-diiodo-4-(4'-methoxyphenoxy)benzoate], for which, in the series with malignant tumor growth, the Activity in vivo entry is “completely inactive”. Besides, the “Cytostatic and cytocidal activity in cellular assays” value in the series on human cancer cells [2] is “completely inactive”.
As for `NC(Cc1cc(I)c(Oc2cc(I)c(O)c(I)c2)c(I)c1)C(=O)O` (stereo not shown) [thyroxine, reference compound], the “Uptake of iodine by the thyroid” value with thyroid is listed as “suppresses uptake of iodine by the thyroid”. Further, the “Metabolic or cell differentiating activity (tadpole metamorphosis)” value in the series with tadpole metamorphosis is recorded as “induces cell differentiation”. Also, the “Growth of non-malignant mouse pituitary tumor” value in series [3] is reported as “depress growth”.
In the case of `COC(=O)c1cc(I)c(Oc2ccc(OC)cc2Cl)c(I)c1` [Compound 14, Methyl 3,5-diiodo-4-(2'-chloro-4'-methoxyphenoxy)benzoate], in the series on human cancer cells [4], the “maximal inhibitory action on the growth of human cancer cells as compared to DIME” value is “about 25%”.
With `CC[C@]1(O)C[C@H]2CN(CCc3c([nH]c4ccccc34)[C@@](C(=O)OC)(c3cc4c(cc3OC)N(C=O)[C@H]3[C@@](O)(C(=O)OC)[C@H](OC(C)=O)[C@]5(CC)C=CCN6CC[C@]43[C@@H]65)C2)C1` [vincristine, reference compound], the Activity in leukemias result with leukemias is “most active and useful agent in the treatment of leukemias”. Moreover, the “Combined action with DIME on metaphase arrest, vincristine versus vinblastine” value in series [1] was “equivalent”. In addition, the “Activation of caspase 3, single drug” value with caspase 3 [5] is on record as “small rate of caspase 3 activity”. Further, the “Caspase 3 increase in cell-free extracts” value with caspase 3 [6] is listed as “do not show an increase in caspase 3”. Besides, in series [7], the “Growth rate with single drug” value is recorded as “do not elicit effects that exceed the SD of average cell growth rates; also recorded: fall within SD values”.
Turning to `COc1ccc(Oc2c(I)cc(C(C)=O)cc2I)cc1` [DIPE, 1-[3,5-diiodo-4-(4'-methoxyphenoxy)-phenyl]-ethanone], in [8], the Stability to hydrolysis entry is given as “non-hydrolyzable”. Further, the “Inhibition of colony formation, DIME versus DIPE” value in series [9] is “equivalency; also recorded: Equivalent effectivity”. Also, in the series with microtubules, the Binding to microtubules result is listed as “bind to microtubules”. Besides, in the series on tubulin α+β, the “Inhibition of assembly of microtubules, DIME versus DIPE” value was “equivalency; also recorded: Inhibitory effects”. For the same molecule, in [7], the “Growth rate with single drug” value was “do not elicit effects that exceed the SD of average cell growth rates”.
In the case of `CC(=O)O[C@H]1C(=O)[C@@]2(C)[C@H]([C@H](OC(=O)c3ccccc3)[C@]3(O)C[C@H](OC(=O)[C@H](O)[C@@H](NC(=O)c4ccccc4)c4ccccc4)C(C)=C1C3(C)C)[C@]1(OC(C)=O)CO[C@@H]1C[C@@H]2O` [taxol], the “Activation of Ras and ASK1 pathways” value in series [10] is “can activate both Ras and apoptosis-regulating kineses (ASK1), pathways”.
In the case of `CC[C@]1(O)C[C@@H]2CN(CCc3c([nH]c4ccccc34)[C@@](C(=O)OC)(c3cc4c(cc3OC)N(C)[C@H]3[C@@](O)(C(N)=O)[C@H](O)[C@]5(CC)C=CCN6CC[C@]43[C@@H]65)C2)C1` [vindesine, 4-desacetyl vinblastine C-3 carboxamide], in the series on leukemias, the Activity in leukemias result is “active in certain leukemias”. Also, in series [11], the Neurotoxicity in humans entry is on record as “less neurotoxicity than does vincristine”.
